# Tests used:
# [1] = tested on: pulmonary fibrosis induced by bleomycin; assay: Stearic acid in bleomycin-induced pulmonary fibrosis animal model; type: in vivo, mice (C57BL6J)
# Source text: Based on the results of Example 2-2, the present inventors attempted to verify the anti-fibrotic effect of stearic acid in an animal model in which pulmonary fibrosis was induced by bleomycin. For this purpose, 6-week-old mice (C57BL6J) were classified into the following 4 groups of 4 or 5 mice, respectively: groups treated with (1) intratracheal saline+vehicle, (2) intratracheal saline+stearic acid, (3) intratracheal 4 units/kg bleomycin+vehicle, and (4) intratracheal bleomycin+stearic acid. Subsequently, mice were anesthetized with 50 mg/kg […] and 5 mg/kg Rompun, followed by infusion of bleomycin and saline into the trachea. The mice were treated with 3 mg/kg stearic acid using oral gavage (zonde) three times a week for 3 weeks. Thereafter, on day 21, lung tissues and blood were collected from the mice and used for the study.
# [2] = tested on: Beas-2B human pulmonary epithelial cell line; assay: E-cadherin expression in epithelial cells; type: cell-based; settings: 40 μM stearic acid, 24 h
# Description: The present inventors examined the expression level of E-cadherin after treating Beas-2B, which is a human pulmonary epithelial cell line, with TGF-β1 and/or 40 μM stearic acid for 24 hours in order to examine the effects of stearic acid on epithelial cells. As a result, as illustrated in FIGS. 11A and 11B, it was confirmed that when Beas-2B was treated with 40 μM stearic acid, the expression of E-cadherin reduced by TGF-β1 was restored in Beas-2B cells. […] It was confirmed in FIG. 3B that when epithelial cells are treated with TGF-β1, the proliferation of epithelial cells was inhibited and the proliferation of epithelial cells was restored by stearic acid.
# [3] = tested on: reactive oxygen species in MRC-5 cells; assay: ROS measurement (DCF-DA, FACS); type: cell-based, human; settings: 40 μM stearic acid pre-treatment 16 h, TGF-β1 1 h
# Description: The present inventors pre-treated a human pulmonary fibroblast cell line MRC-5 with 40 μM stearic acid for 16 hours, treated the MRC-5 cells with TGF-β1 for 1 hour, and then examined the expression levels of p-Smad2/3 and Smad7 in order to elucidate the anti-fibrotic mechanism of stearic acid in human pulmonary fibroblasts (FIGS. 12A and 12B). Further, to investigate the effect of stearic acid on the production of reactive oxygen species (ROS), MRC-5 cells were pre-treated with 40 μM stearic acid for 16 hours, and cells treated with TGF-β1 for 1 hour were stained with DCF-DA and analyzed by FACS (FIG. 12C). Furthermore, MRC-5 cells were pre-treated with 5 mM N-acetylcysteine (NAC), which is an antioxidant, for 1 hour and treated with TGF-β1 for 1 hour, and then the expression of p-Smad2/3 was examined (FIG. 12D).
# [4] = tested on: human primary fibroblasts; assay: Combined treatment of stearic acid and pirfenidone in human primary fibroblasts (western blotting); type: cell-based; settings: TGF-β 5 ng/ml; 40 μM stearic acid single treatment (Lane 4)
# Description: (§1) The primary fibroblasts derived from the patients with idiopathic pulmonary fibrosis used in the following experiment were cultured for 7 to 10 days while cutting the lung tissue of the patient into 1×1 mm^2 slices, and then periodically exchanging a cell culture solution (Eagle's minimal essential medium; EMEM) supplemented with 100 unit/ml penicillin, 100 μg/ml streptomycin, and 10% fetal bovine serum (FBS) under conditions of 5% CO2 and 37° C., and cells of passage 2 to 5 were used for the experiment.
# To verify the anti-fibrotic effect by the combined treatment of stearic acid and pirfenidone, which is a therapeutic agent for idiopathic pulmonary fibrosis, the human primary fibroblasts isolated by the above-described method were respectively or simultaneously treated with 5 ng/ml TGF-β, 40 μM stearic acid, and 400 or 800 μM pirfenidone for 24 hours, and then the expression levels of collagen type 1 (COL-1) and α-SMA, which are markers of fibrosis, were measured by western blotting, and the inhibitory rate was quantitatively analyzed by correcting the amount of each protein with the amount of actin, which is an intracellular control protein.
# [5] = tested on: pulmonary fibrosis induced by bleomycin; assay: Combined stearic acid and pirfenidone in bleomycin pulmonary fibrosis animal model; type: in vivo, mice (C57BL/6J); settings: 3 mg/kg stearic acid, 300 mg/kg pirfenidone oral once every 2 days for 2 weeks; versus bleomycin group
# Description: In addition to the results of the above examples, the present inventors sought to confirm the anti-fibrotic effect by the combined treatment of stearic acid and pirfenidone in a pulmonary fibrosis animal model. For this purpose, 8-week-old mice (C57BL/6J) were anesthetized with 50 mg/kg […] and 5 mg/kg Rompun, followed by injection of bleomycin and saline into the trachea. From 7 days after administration of bleomycin, 3 mg/kg stearic acid, 300 mg/kg pirfenidone or the two drugs were orally administered at the same time once every 2 days for 2 weeks, and changes in mouse body weight were measured up to 21 days after administration of bleomycin.
# [6] = tested on: human primary fibroblasts; assay: Combined treatment of stearic acid and nintedanib in human primary fibroblasts; type: cell-based; settings: 40 μM stearic acid single treatment versus TGF single treatment
# Description: as §1, with “experiment. To verify the anti-fibrotic effect by the combined treatment of stearic acid and nintedanib, which is another therapeutic agent for idiopathic pulmonary fibrosis, human primary fibroblasts were respectively or simultaneously treated with 5 ng/ml TGF-β, 40 μM stearic acid, and 1.5 or 2 μM nintedanib for 24 hours, and then the expression levels of collagen type 1 (COL-1) and α-SMA, which are markers of fibrosis, were measured, respectively.” for “experiment.”
# [7] = day 21, stearic acid 3 mg/kg oral
structure (smiles),measurement,setting,value
CCCCCCCCCCCCCCCCCC(=O)O [stearic acid],reduction in body weight due to bleomycin,"[1]; day 7, stearic acid 3 mg/kg oral gavage three times a week",significantly inhibited
same,expression of p-Smad2/3 in lung tissues,[1]; [7],inhibition of an increase in expression of p-Smad2/3
same,expression of α-SMA in lung tissues,[1]; [7],inhibiting an increase in expression of α-SMA
same,histopathological characteristics of pulmonary fibrosis (H&E),"[1]; day 21, stearic acid 3 mg/kg oral, 3 weeks",remarkably reduced
same,accumulation of hydroxyproline,"[1]; lung tissue, day 21, stearic acid 3 mg/kg oral",inhibiting the accumulation of hydroxyproline
same,blood level of TGF-β1,"[1]; serum, day 21, stearic acid 3 mg/kg oral",inhibiting an increase in the blood level of TGF-β1
same,expression of E-cadherin reduced by TGF-β1,[2],restored
same,level of reactive oxygen species induced by TGF-β1,[3],remarkably reduced
same,change in COL-1,[4],insignificant
same,α-SMA,[4],reduced
same,level of hydroxyproline,[5],partially reduced
same,expression level of COL-1,[6],no change
same,expression level of α-SMA,[6],no change

# From patent US20210205253A1, “Use Of Stearic Acid For Preventing Or Treating Pulmonary Fibrosis” (THE ASAN FOUNDATION, priority 2018, published 2021)
